Assay results reported in US9820963B2, “Composition containing lignan compound as active ingredient for preventing or treating cancer” (KOREA RESEARCH INSTITUTE OF BIOSCIENCE AND BIOTECHNOLOGY, priority 2013, dated 2017).
“Also recorded” adds a separate entry of the source.

Key:
[1] = tested on: ERKs/RSKs signaling pathway; assay: Western blot of EGF-stimulated cells, ERKs/RSKs signaling pathway; assay type: cell-based, mouse; settings: for ERK1/2 phosphorylation at Thr202/Tyr204: JB6 Cl41 cells
Experimental: The cultured JB6 Cl41 cells (1×10^6 cells) were aliquoted into a cell culture dish with a diameter of 100 mm and they were cultured overnight. Then, the cells were left for 24 hours in 0.1% FBS-MEM and pretreated with magnolin at concentrations of 15 μM, 30 μM, and 60 μM for 30 minutes, respectively, and after 30 minutes, co-treated with EGF and magnolin.
The proteins were extracted from the cultured JB6 Cl41 cells and the samples containing the proteins were analyzed by 8% to 10% SDS-PAGE, and transferred onto polyvinylidene difluoride (PVDF) membranes. The membranes were cultured in a blocking buffer containing 5% skim milk. Then, Western blot was performed using specific antibodies for phospho-MEK (MAPK (mitogen-activated protein kinase)/ERK kinase), total-MEK, phospho-ERK, total-ERK, phospho-RSK, total-RSK, phospho-Akt, total-Akt, phospho-p38 kinase, total-p38 kinase, phospho-JNK (c-Jun N-terminal kinase), and total-JNK (all the antibodies obtained from Cell Signaling Technology, Beverly, Mass., USA). In particular, β-actin (Santa Cruz, Calif., USA) was used as a control and the Western blot was visualized with an enhanced chemiluminescence detection system (Amersham Biosciences, Piscataway, N.J., USA) using the Chemidoc XRS imager system (Bio-Rad Laboratories, Hercules, Calif., USA).
To confirm whether the action of magnolin, which interrupts phosphorylation at Thr359/Ser363 of RSKs, was selective in MEKs/ERKs signaling pathways or not, the action was compared by conducting an experiment on the phosphorylation of ERKs and RSKs by treatment with PD98059, an MEK1/2 inhibitor. As a result, it was confirmed that PD98059 interrupts ERK1/2 phosphorylation at Thr202/Tyr204.

[2] = tested on: Mouse skin epidermal JB6 Cl41 cells; assay: MTS assay, inhibitory effect of magnolin on cell proliferation; assay type: cell-based; settings: up to 96 hours, read-out: inhibition of cell proliferation compared with DMSO control
Experimental: Mouse skin epidermal JB6 Cl41 cells were cultured in Dulbeco's Modified Eagle's Medium (DMEM) containing 10% FBS at 37° C. in a 5% CO2 bioreactor. The cells were subcultured at 80% to 90% confluence and the medium was changed every 2 to 3 days.
The cultured JB6 Cl41 cells (1×10^3 cells) were aliquoted into 96-well plates containing 5% FBS-MEM and cultured for 2 hours at 37° C. in a 5% CO2 bioreactor. Then, each well was added with 20 μL of an aqueous solution of the MTS-based Cell Titer 96, and then, further cultured for 1 hour at 37° C. in a 5% CO2 bioreactor. 25 μL of 10% sodium dodeceyl sulfate (SDS) solution was added into each of the wells to stop the reaction. The absorbance at 492 nm was measured to measure the growth of the cells at 0 hour.
While measuring the absorbance at 0 hour, the cells were simultaneously treated with the magnolin samples to final concentrations of 15 μM, 30 μM, and 60 μM, respectively, prepared in Example 5. The cells were cultured for 96 hours while measuring the absorbance at 24 hour intervals. In the experiment, the cell treated with DMSO alone was set as a control.

[3] = tested on: ATF1 and AP-1 transactivation activities; assay: ATF1 and AP-1 phosphorylation, nuclear localization and transactivation (Western blot, luciferase reporter); assay type: cell-based, mouse
Experimental: 1×10^6 of the cultured JB6 Cl41 cells were cultured in a cell culture dish with a diameter of 100 mm for overnight. The cells were starved and left for 24 hours, and then pretreated with magnolin at concentrations of 15 μM, 30 μM, and 60 μM of for 30 minutes, and then co-treated with […] of EGF and magnolin for 30 minutes. The proteins were extracted from the cells and visualized by Western blot.
On the other hand, the cells were co-transfected with pGAL4-ATF1-expressing plasmids and p5xGal4-luciferase reporter plasmids, and then cultured for 12 hours. The cells were pretreated with magnolin for 30 minutes, and co-treated with EGF and magnolin for 6 hours. Then, the cell culture was stopped and the activity of firefly luciferase was measured using the VIXTOR X3(PerkinElmer).

JB6 Cl41 cells [4] = assay: Cytotoxicity of magnolin; assay type: cell-based, mouse; settings: 100 μM or higher, 48 hours
Experimental: Additionally, to examine the cytotoxicity of magnolin, the cultured cells (2×10^4 cells) were aliquoted into 96-well plates containing 5% FBS-MEM and cultured overnight. Then, the cells were treated with the magnolin samples to final concentrations of 15 μM, 30 μM, 60 μM, and 100 μM respectively, prepared in the Example 5. The cells were cultured for 48 hours while measuring the absorbance at 24 hour intervals. In the experiment, the cell treated with DMSO alone was set as a control.

ERK2 [5] = target: T1, ERK2 (Homo sapiens, UniProt P28482); assay: Magnolin competition analysis using ATP-agarose beads; assay type: binding; settings: increasing magnolin
T1 sequence (P28482 whole entry): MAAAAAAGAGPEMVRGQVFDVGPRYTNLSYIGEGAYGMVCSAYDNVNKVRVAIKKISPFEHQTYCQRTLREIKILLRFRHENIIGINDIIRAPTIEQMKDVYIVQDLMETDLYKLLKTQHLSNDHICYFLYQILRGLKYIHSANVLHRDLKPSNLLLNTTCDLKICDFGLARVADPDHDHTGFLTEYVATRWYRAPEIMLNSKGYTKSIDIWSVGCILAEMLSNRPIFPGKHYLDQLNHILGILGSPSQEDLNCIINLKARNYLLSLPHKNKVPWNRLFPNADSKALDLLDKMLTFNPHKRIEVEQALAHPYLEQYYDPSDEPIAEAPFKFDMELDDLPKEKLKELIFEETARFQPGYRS
Experimental: Then, to confirm whether magnolin was competitive with ATP or not, a magnolin competition analysis was performed using APT-agarose beads. As the result of the experiment, it was confirmed that an increase in magnolin decreased ERK2 that bind to ATP-agarose beads (FIG. 13E).

ERK2 [6] = target: T1, ERK2; assay: In vitro kinase analysis with active ERK2 and His-RSK2-328-740; assay type: biochemical
Experimental: (§1) A truncated RSK2 protein containing the amino acid at position 328 to the amino acid at position 740 (His-RSK-328-740) was purified using Ni-NTA agarose beads (Qiagen Korea Ltd., Seoul, Korea) (Left panel on FIG. 13A) and an in vitro-kinase analysis was performed using active ERK and His-RSK2-328-740 proteins. Specifically, in the in vitro-kinase analysis, 20 μL of the purified sample was treated with 20 ng of active ERK1 or ERK2, 100 ng of RSK2, and 100 μM of cold-ATP, and 3.75 μM, 7.5 μM, 15 μM, 30 μM, and 60 μM of magnolin, respectively. Then, the kinase reaction was performed for 30 minutes at 30° C. The reaction was stopped by adding 6×SDS-sample buffer followed by boiling. Upon termination of the reaction, the resultant was visualized by Western blot.
(§2) As the result of the computational docking, it was observed that magnolin forms hydrogen bonds with Lys168 of ERK1 (Left panel on FIG. 13B) and Met108 and Lys54 of ERK2 (Right panel on FIG. 13B), respectively. Further, it was confirmed that magnolin in the active pocket of ERK1 or ERK2 was completely different in molecular structure and binding angle. The docking scores of magnolin at the active pockets of ERK1 and ERK2 were −0.7 and −6.68, respectively. Further, to measure the IC50 value on the activity of ERK1 or ERK2, the in vitro-kinase analysis was performed.

[7] = tested on: NIH3T3 cells expressing Ras^G12V; assay: Cell proliferation and anchorage-independent colony growth of NIH3T3 cells; assay type: cell-based
Text: In order to confirm the experimental results more precisely, NIH3T3 cells stably expressing mock or Ras^G12V were used to perform an additional experiment in the same manner as described above.

JB6 Cl41 cells [8] = assay: Anchorage-independent cell transformation assay, EGF-induced; assay type: cell-based; settings: Mus musculus, JB6 Cl41, 336 h, 10 ng/mL EGF, 14 days
Experimental: JB6 Cl41 cells (8×10^3 cells) present in 1 mL of 0.3% Basal Medium Eagle (BME) agar containing 10% FBS and magnolin in concentrations of 15 μM, 30 μM, and 60 μM, respectively, were exposed to 10 ng/mL of EGF, maintained at 37° C., and cultured in a 5% CO2 bioreactor for 14 days. Then, the number and size of the colonies were counted using an ECLIPSE Ti inverted microscope and the NIS-Elements AR (V. 4.0) computer software program (NIKON Instruments Korea, Seoul, Korea).

ERK1 = ERK1 (Homo sapiens, UniProt P27361); assay: In vitro kinase analysis with active ERK1 and His-RSK2-328-740; assay type: biochemical
ERK1, sequence (P27361 whole entry, species assumed): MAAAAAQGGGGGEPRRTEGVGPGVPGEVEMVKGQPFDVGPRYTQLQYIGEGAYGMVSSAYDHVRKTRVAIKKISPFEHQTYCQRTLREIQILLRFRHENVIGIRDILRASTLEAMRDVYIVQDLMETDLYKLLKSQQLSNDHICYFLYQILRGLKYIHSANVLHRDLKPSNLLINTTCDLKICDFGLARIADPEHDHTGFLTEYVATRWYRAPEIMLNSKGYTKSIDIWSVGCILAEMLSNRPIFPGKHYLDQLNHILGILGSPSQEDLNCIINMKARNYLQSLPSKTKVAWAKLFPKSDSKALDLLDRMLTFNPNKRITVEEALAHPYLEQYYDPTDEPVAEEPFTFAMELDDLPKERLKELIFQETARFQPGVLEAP
Experimental: as §1, §2

[9] = tested on: A549 human lung cancer cells harboring Ras^G12V; assay: Cell proliferation of lung cancer cells; assay type: cell-based; settings: 15, 30, 60 μM, 96 hours
Experimental: H226 human lung cancer cells (2×10^3 cells) harboring Ras-wt and A549 human lung cancer cells (2×10^3 cells) harboring Ras^G12V, mutant activating factor, were aliquoted into 96-well plates, respectively, and treated with magnolin at concentrations of 15 μM, 30 μM, and 60 μM. The cells were cultured for 96 hours at 24 hour intervals and the cell proliferation was measured.

JB6 Cl41 cells [10] = assay: EGF-induced cell cycle progression; assay type: cell-based, mouse; settings: 60 μM or higher, 1 ng/mL EGF, 12 hours
Experimental: Then, the cells were pretreated with magnolin to final concentrations of 15 μM, 30 μM, and 60 μM, respectively, for 30 minutes. Then, under the presence of magnolin, the cells were stimulated with 1 ng/mL of EGF for 12 hours.

JB6 Cl41 cells [11] = assay: Cell cycle distribution by PI flow cytometry, normal culture conditions; assay type: cell-based, mouse; settings: for distribution in G1/G0 phase: 12 hours (control about 42%)
Experimental: To observe the cell cycle of the cells under normal cell culture conditions, JB6 Cl41 cells were cultured in a complete cell culture medium for 12 hours and treated with magnolin at final concentrations of 30 μM and 60 μM, respectively. After 12 hours, the cells were treated with trypsin, fixed, and treated with 20 μg/mL of PI at 4° C. for 15 minutes. Then, the cell cycle distribution was analyzed using the flow cytometry (BD FACS Calibur™ Flow cytometery, Franklin Lakes, N.J., USA).

[12] = tested on: A549 cells having Ras^G12V; assay: Anchorage-independent colony growth in soft agar; assay type: cell-based, human; settings: 15, 30, 60 μM, 10 days
Experimental: Further, H226 cells (8×10^3 cells) having Ras-wt and A549 cells (8×10^3 cells) having Ras^G12V were cultured in 1 mL of 0.3% DMEM agar containing 10% FBS and 15 μM, 30 μM, and 60 μM of magnolin, respectively, maintained at 37° C., and cultured in a 5% CO2 bioreactor for 10 days. As the result of counting the number and size of the cell colonies using an ECLIPSE Ti inverted microscope and the NIS-Elements AR (V. 4.0) computer software program, it was observed that an anchorage-independent colony growth of A549 cells was inhibited by magnolin.

[13] = co-treated with EGF and magnolin

## COc1cccc(-c2cc(=O)c3ccccc3o2)c1N [PD98059, reference compound]
[1]; EGF-stimulated JB6 Cl41 cells
  phosphorylation at Thr359/Ser363 of RSKs: inhibited
[1]
  ERK1/2 phosphorylation at Thr202/Tyr204: interrupts

## COc1ccc([C@H]2OC[C@H]3[C@@H]2CO[C@@H]3c2cc(OC)c(OC)c(OC)c2)cc1OC [magnolin]
[2]; 30 μM
  inhibition at 30 µM: ~40%
[2]; 60 μM
  inhibition at 60 µM: ~70%
[1]; EGF-stimulated JB6 Cl41 cells
  phosphorylation at Thr359/Ser363 of RSKs: interrupting phosphorylation; also recorded: inhibited
  phosphorylations of MEK, Akt, p38 kinase, and JNKs: not to be involved
[1]
  ERK1/2 phosphorylation at Thr202/Tyr204: does not interrupt the phosphorylation
[3]; JB6 Cl41 cells, Western blot
  EGF-induced ATF1 phosphorylation at Ser63: inhibited
[3]; [13]
  AP-1 transactivation activity: inhibited
  EGF-induced c-Jun phosphorylation at Ser63 and Ser73: inhibited
  nuclear phospho-c-Jun increased by EGF stimulation: decreased
[3]; co-treated with EGF and magnolin, Western blot and immunocytofluorescence
  nuclear phospho-ATF1 protein level induced by EGF: decreased
[3]; co-treated with EGF and magnolin, luciferase reporter
  ATF1 transactivation activity increased by EGF stimulation: inhibited
JB6 Cl41 cells [4]
  cytotoxicity: no cytotoxicity was observed
ERK2 [5]
  ERK2 binding to ATP-agarose beads: decreased
ERK2 [6]
  IC50: 16.5 nM
[7]
  anchorage-independent growth: inhibited
  inhibition of cell proliferation compared with NIH3T3 cells expressing mock: more sensitive
JB6 Cl41 cells [8]; 30 μM
  inhibition at 30 µM: ~40%
JB6 Cl41 cells [8]; 60 μM
  inhibition at 60 µM: ~75%
ERK1; in vitro kinase reaction, 100 μM ATP, magnolin 3.75 to 60 μM
  inhibition of ERK1-mediated RSK2 phosphorylation at Thr359/Ser363 and Thr577: about 90%
ERK1; in vitro-kinase analysis
  IC50: ~87 nM
[9]
  inhibition of cell proliferation in A549 cells compared with H226 cells: more significantly
JB6 Cl41 cells [10]
  effect of EGF on cell cycle: almost completely inhibited
JB6 Cl41 cells [11]; 30 μM and 60 μM, 12 hours
  distribution in G2/M cell cycle phase compared to control: only a very small increase
JB6 Cl41 cells [11]; 30 μM
  distribution in G1/G0 phase: about 55%
JB6 Cl41 cells [11]; 60 μM
  distribution in G1/G0 phase: about 60%
[12]
  anchorage-independent colony growth of A549 cells: inhibited
